Like-named read-outs stand apart in the source and are kept apart here.
How the values were obtained:
Assay type in all cases: binding
[1] = target: T1, HeLa cell extract proteins (Homo sapiens, UniProt Q15645)
T1 construct: endogenous in cells; host or cells: HeLa cell extract
T1 sequence (Q15645 1-432): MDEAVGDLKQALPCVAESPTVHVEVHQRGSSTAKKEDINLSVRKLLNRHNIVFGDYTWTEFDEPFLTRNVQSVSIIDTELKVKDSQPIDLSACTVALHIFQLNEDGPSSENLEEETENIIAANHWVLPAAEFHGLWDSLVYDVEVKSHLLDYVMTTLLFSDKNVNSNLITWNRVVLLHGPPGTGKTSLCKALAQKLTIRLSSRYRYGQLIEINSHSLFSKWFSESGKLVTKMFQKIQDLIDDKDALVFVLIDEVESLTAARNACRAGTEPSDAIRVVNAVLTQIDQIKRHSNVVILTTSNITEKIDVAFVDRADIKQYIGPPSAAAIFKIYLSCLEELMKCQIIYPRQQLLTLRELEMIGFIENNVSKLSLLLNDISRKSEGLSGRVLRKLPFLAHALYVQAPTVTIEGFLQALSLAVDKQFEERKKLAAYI

[2] = target: T2, HeLa cell extract proteins (Homo sapiens, UniProt P22695)
T2 construct: endogenous in cells; host or cells: HeLa cell extract
T2 sequence (P22695 15-453): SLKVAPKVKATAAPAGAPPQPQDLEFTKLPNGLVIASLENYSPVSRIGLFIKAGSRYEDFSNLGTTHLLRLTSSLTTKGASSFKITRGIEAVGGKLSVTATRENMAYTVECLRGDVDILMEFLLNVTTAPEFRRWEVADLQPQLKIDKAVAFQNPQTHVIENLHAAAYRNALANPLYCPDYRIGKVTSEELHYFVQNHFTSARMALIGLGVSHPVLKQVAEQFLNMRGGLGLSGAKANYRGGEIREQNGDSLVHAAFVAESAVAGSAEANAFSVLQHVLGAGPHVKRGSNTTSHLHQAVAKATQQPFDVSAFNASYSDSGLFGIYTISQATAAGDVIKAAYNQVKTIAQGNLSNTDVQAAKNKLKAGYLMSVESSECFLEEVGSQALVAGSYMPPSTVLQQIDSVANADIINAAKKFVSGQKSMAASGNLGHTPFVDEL

[3] = target: T3, HeLa cell extract proteins (Homo sapiens, UniProt Q969M3)
T3 construct: endogenous in cells; host or cells: HeLa cell extract

[4] = target: T4, HeLa cell extract proteins (Homo sapiens, UniProt P60981)
T4 construct: endogenous in cells; host or cells: HeLa cell extract
T4 sequence (P60981 1-165): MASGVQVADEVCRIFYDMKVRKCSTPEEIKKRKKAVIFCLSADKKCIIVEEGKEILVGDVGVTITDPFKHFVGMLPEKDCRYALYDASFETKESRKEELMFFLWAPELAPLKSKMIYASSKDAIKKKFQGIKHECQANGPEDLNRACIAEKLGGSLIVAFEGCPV

[5] = target: T5, HeLa cell extract proteins (Homo sapiens, UniProt P60900)
T5 construct: endogenous in cells; host or cells: HeLa cell extract

[6] = target: T6, HeLa cell extract proteins (Homo sapiens, UniProt P63244)
T6 construct: endogenous in cells; host or cells: HeLa cell extract

[7] = target: T7, HeLa cell extract proteins (Homo sapiens, UniProt Q09161)
T7 construct: endogenous in cells; host or cells: HeLa cell extract
T7 sequence (Q09161 1-790): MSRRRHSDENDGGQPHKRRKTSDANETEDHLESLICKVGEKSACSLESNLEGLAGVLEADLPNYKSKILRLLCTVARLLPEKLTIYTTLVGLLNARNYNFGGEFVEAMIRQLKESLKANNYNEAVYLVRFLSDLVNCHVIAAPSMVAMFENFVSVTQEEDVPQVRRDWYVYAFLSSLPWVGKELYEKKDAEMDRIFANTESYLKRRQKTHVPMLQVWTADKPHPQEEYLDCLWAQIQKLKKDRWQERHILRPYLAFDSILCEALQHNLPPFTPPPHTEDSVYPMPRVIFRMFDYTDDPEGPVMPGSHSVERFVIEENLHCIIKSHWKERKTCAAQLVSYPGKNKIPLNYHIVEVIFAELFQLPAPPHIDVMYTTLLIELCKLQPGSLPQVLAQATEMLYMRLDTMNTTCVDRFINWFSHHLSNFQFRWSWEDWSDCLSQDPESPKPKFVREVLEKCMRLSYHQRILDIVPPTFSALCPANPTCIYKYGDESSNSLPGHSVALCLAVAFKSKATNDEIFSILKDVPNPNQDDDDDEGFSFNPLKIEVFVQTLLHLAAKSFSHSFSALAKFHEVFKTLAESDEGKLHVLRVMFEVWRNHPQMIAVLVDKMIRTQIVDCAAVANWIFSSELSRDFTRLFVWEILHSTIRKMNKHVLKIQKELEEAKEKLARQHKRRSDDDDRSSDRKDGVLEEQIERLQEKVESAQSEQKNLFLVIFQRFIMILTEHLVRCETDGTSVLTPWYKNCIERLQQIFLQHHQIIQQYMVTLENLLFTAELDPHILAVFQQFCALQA

[8] = target: T8, HeLa cell extract proteins (Homo sapiens, UniProt P27708)
T8 construct: endogenous in cells; host or cells: HeLa cell extract

[9] = target: T9, HeLa cell extract proteins (Homo sapiens, UniProt P31947)
T9 construct: endogenous in cells; host or cells: HeLa cell extract
T9 sequence (P31947 1-248): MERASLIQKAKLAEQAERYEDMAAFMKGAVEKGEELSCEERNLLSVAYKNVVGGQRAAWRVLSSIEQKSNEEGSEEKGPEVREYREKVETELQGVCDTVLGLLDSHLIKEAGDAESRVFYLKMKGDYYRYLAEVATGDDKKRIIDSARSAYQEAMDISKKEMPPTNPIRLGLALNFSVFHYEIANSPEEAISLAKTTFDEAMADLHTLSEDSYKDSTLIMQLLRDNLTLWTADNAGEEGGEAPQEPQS

T5 sequence (P60900 whole entry): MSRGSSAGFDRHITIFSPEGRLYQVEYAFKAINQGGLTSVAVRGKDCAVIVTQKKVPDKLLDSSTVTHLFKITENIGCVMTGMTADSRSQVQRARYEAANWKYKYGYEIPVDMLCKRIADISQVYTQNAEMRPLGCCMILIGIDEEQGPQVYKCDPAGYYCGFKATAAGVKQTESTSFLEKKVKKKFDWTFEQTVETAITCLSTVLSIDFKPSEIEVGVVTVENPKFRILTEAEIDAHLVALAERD
T8 sequence (P27708 whole entry): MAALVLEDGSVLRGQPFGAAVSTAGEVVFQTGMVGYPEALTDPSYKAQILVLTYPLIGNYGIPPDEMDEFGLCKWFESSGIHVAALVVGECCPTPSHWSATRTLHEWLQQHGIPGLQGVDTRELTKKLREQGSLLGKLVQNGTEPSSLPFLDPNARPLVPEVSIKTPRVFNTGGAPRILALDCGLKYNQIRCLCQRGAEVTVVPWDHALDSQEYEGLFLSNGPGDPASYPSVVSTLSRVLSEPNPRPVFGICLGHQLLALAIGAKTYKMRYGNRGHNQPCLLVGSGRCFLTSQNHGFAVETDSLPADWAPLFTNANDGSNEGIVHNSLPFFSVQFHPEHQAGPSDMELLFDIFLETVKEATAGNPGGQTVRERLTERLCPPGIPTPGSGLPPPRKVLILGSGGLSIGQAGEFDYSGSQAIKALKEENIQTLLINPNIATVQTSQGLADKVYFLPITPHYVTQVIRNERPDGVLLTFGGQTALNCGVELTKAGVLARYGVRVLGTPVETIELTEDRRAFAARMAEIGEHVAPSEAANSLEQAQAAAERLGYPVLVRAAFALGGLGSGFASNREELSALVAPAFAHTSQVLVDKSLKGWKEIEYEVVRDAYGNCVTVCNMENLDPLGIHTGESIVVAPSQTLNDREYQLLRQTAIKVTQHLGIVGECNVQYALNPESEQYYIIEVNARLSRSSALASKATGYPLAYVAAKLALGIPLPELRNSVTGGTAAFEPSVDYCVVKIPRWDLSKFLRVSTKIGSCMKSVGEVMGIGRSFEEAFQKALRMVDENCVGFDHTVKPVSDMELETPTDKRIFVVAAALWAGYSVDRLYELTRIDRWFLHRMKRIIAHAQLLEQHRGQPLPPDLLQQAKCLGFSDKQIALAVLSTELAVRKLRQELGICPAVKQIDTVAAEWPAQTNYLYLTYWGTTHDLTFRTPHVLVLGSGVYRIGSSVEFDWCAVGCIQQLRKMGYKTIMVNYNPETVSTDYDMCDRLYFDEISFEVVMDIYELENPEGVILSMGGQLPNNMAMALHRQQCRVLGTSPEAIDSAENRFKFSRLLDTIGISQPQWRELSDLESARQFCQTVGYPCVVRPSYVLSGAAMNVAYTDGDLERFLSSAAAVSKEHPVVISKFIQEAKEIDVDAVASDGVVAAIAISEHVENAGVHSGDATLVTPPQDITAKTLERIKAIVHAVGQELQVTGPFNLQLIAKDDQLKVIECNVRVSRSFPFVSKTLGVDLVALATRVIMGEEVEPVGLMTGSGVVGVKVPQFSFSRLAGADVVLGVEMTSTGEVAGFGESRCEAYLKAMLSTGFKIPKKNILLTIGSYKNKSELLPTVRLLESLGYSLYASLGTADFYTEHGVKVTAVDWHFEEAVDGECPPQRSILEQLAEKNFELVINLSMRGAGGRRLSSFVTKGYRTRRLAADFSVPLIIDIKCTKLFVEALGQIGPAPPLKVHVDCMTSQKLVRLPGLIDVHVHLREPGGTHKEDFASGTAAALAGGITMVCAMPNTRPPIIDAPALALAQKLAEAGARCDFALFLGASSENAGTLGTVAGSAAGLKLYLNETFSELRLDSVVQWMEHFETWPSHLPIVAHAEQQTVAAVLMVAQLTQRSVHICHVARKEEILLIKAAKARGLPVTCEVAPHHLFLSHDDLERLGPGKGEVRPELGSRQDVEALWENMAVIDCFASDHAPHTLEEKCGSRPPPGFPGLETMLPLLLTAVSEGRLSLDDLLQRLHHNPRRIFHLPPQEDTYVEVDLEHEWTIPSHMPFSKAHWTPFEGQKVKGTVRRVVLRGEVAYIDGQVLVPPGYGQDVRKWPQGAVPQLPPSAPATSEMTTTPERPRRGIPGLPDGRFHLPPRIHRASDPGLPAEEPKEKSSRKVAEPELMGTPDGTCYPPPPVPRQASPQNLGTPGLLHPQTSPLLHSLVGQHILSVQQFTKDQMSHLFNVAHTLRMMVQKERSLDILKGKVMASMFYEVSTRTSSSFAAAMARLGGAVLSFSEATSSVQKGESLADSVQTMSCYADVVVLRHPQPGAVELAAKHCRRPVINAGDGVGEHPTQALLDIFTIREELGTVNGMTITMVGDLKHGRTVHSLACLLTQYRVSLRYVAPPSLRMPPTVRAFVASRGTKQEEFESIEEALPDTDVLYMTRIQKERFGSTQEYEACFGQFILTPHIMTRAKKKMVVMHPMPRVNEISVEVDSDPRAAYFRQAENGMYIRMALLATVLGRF
T3 sequence (Q969M3 whole entry): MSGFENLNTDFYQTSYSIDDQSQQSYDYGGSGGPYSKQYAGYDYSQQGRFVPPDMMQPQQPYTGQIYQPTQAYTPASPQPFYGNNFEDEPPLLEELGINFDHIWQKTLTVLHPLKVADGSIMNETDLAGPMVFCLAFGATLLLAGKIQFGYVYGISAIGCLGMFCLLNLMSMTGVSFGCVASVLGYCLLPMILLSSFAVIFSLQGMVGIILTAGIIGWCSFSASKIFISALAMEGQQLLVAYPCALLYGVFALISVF

| SMILES | fold changes relative to vehicle control ([1]; HeLa, protein TRIP13) | fold changes relative to vehicle control ([2]; HeLa, protein UQCRC2) | fold changes relative to vehicle control ([3]; captured protein YIPF5, HeLa) | fold changes relative to vehicle control ([4]; HeLa, protein DSTN (DESTRIN.)) [fold] | fold changes relative to vehicle control ([5]; protein PSMA6, HeLa) | fold changes relative to vehicle control ([6]; HeLa, protein GNB2L1) | fold changes relative to vehicle control ([7]; captured protein NCBP1, HeLa) | fold changes relative to vehicle control ([8]; captured protein CAD, HeLa) | fold changes relative to vehicle control ([9]; protein SFN, HeLa) | fold changes relative to vehicle control ([3]; HeLa, captured protein YIPF5) | fold changes relative to vehicle control ([4]; HeLa, protein DSTN) | fold changes relative to vehicle control ([5]; HeLa, protein PSMA6) | fold changes relative to vehicle control ([7]; protein NCBP1, HeLa) | fold changes relative to vehicle control ([8]; protein CAD, HeLa) | fold changes relative to vehicle control ([9]; HeLa, protein SFN) | also measured |
| --- | --- | --- | --- | --- | --- | --- | --- | --- | --- | --- | --- | --- | --- | --- | --- | --- |
| CCCCCCOc1cccc(Cc2cnc(N)nc2N)c1 [compound 2] | 1.17 | 0.99 | 1.15 | 2.07 | 1.27 | 1.19 | 1.03 | 1.01 | 1.83 | – | – | – | – | – | – | – |
| NCCOCCOCC(=O)Nc1nc2ncc(CNc3ccc(C(=O)NC(CCC(=O)O)C(=O)O)cc3)nc2c(=O)[nH]1 (stereo not drawn) [compound 6] | 0.94 | 0.95 | – | – | – | 1.12 | – | – | – | 0.93 | 1.16 | 1 | 0.89 | 1.18 | 1.45 | – |
| CCCCCCOc1ccc(Cc2cnc(N)nc2N)cc1 [compound 1] | 0.96 | 0.97 | 1.43 | 1.28 | 1.1 | 1.12 | 0.91 | 1.1 | 1.27 | – | – | – | – | – | – | – |
| Nc1nc2c(c(=O)[nH]1)N(C=O)C(CNc1ccc(C(=O)N[C@@H](CCC(=O)O)C(=O)O)cc1)CN2 (stereo partly drawn) [LEU, leucovorin] | 0.92 | 0.9 | – | – | – | 1.08 | – | – | – | 0.94 | 0.96 | 1.02 | 0.81 | 1.34 | 1.07 | – |
| NCCCNc1ccc(C(=O)NC(CCC(=O)O)C(=O)O)cc1 (stereo not drawn) [compound 7] | 1.09 | 1.03 | – | – | – | 0.99 | – | – | – | 0.83 | 0.91 | 1 | 0.93 | 1.3 | 0.97 | – |
| Nc1nc2[nH]cc(CCc3ccc(C(=O)N[C@@H](CCC(=O)O)C(=O)O)cc3)c2c(=O)[nH]1 [PTX, pemetrexed] | – | – | – | – | – | – | – | – | – | – | – | – | – | – | – | fold changes relative to vehicle control [1]: 0.88; fold changes relative to vehicle control [2]: 0.93; fold changes relative to vehicle control [3]: 0.98; fold changes relative to vehicle control [4]: 1.05; fold changes relative to vehicle control [5]: 1; fold changes relative to vehicle control [6]: 1.08; fold changes relative to vehicle control [7]: 0.95; fold changes relative to vehicle control [8]: 0.52; fold changes relative to vehicle control [9]: 1.28 |
| Nc1nc2cccc(-c3ccccc3)c2n1Cc1ccc(Cl)c(Cl)c1 [compound 3] | 1.24 | 1.01 | 0.72 | 1.09 | 1.02 | 1.12 | 0.96 | 1.14 | 0.82 | – | – | – | – | – | – | – |
